Measurements reported in ChEMBL document CHEMBL1129646, “Structure-activity relationships study of two series of leukotriene B4 antagonists: novel indolyl and naphthyl compounds substituted with a 2-[methyl(2-phenethyl)amino]-2-oxoethyl side chain” (J Med Chem, 1996).

Assays:
[1] = molecular target: Leukotriene B4 receptor (Homo sapiens, UniProt Q9NPC1+Q15722); assay: LTB4 receptor binding from radioligand binding assay using human intact neutrophils PMN
[2] = LTB4 receptor binding from radioligand binding assay using guinea pig spleen cell membrane
[3] = molecular target: T1, Leukotriene B4 receptor 1 (Homo sapiens, UniProt Q15722); assay: Compound was evaluated for LTB4 receptor binding, obtained from radioligand binding assay using human intact neutrophils PMN
T1 sequence (Q15722 whole entry): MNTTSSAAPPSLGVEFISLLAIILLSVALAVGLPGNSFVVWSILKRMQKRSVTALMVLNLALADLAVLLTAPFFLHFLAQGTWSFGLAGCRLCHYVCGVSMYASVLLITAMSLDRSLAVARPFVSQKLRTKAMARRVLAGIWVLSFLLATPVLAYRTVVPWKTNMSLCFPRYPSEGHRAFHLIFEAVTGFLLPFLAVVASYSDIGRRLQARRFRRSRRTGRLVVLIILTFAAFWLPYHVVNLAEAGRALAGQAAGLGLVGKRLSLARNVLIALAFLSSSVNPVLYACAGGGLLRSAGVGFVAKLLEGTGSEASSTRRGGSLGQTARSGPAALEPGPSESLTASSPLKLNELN

[4] = molecular target: T1, Leukotriene B4 receptor 1; assay: Compound was evaluated for LTB4 receptor binding obtained from radioligand binding assay using human intact neutrophils PMN; No activity

Work on `CN(CCc1ccccc1)C(=O)Cc1cc(C(=O)O)c(OCc2ccccc2)c2ccccc12` yielded an IC50 [1] of 80 nM and an IC50 [2] of 6.5 nM.
For `CN(CCc1ccccc1)C(=O)Cn1cc(/C=C/C(=O)O)c2ccc(OCc3ccccc3)cc21`, the IC50 [2] was > 300 nM.
Work on `CN(CCc1ccccc1)C(=O)Cc1cc(CCC(=O)O)cc2c(-c3ccccc3)cccc12` yielded an IC50 [1] of 40 nM and an IC50 [2] of 3.5 nM.
With `C/C(=C\c1cn(CC(=O)N(C)CCc2ccccc2)c2ccc(OCc3ccccc3)cc12)C(=O)O` the IC50 [1] was 11 nM and the IC50 [2] was 5 nM.
Work on `CN(CCc1ccccc1)C(=O)Cn1cc(/C=C/C=C/C(=O)O)c2cc(OCc3ccccc3)ccc21` yielded an IC50 [1] of 19 nM and an IC50 [2] of 8 nM.
Work on `CN(CCc1ccccc1)C(=O)Cc1cc(CCC(=O)O)cc2c(OCc3ccccc3)cccc12` yielded an IC50 [2] of 10 nM.
`CC/C(=C\c1cn(CC(=O)N(C)CCc2ccccc2)c2ccc(OCc3ccccc3)cc12)C(=O)O` gave an IC50 [1] of 7.6 nM and an IC50 [2] of 1.3 nM.
In the case of `CN(CCc1ccccc1)C(=O)Cn1cc(/C=C/C2N=NN=N2)c2cc(OCc3ccccc3)ccc21`, the IC50 [1] is reported as 19 nM and the IC50 [2] is reported as 4.5 nM.
Work on `CN(CCc1ccccc1)C(=O)Cc1cc(C(=O)O)cc2cc(OCc3ccccc3)ccc12` yielded an IC50 [1] of 7.75 nM and an IC50 [2] of 1.07 nM.
`CN(CCc1ccccc1)C(=O)Cn1cc(CC(=O)O)c2cc(OCc3ccccc3)ccc21` showed an IC50 [2] of 30 nM.
`CN(CCc1ccccc1)C(=O)Cn1cc(/C=C/C(=O)O)c2cc(OCc3ccccc3)ccc21` showed an IC50 [1] of 53 nM and an IC50 [2] of 4.3 nM.
`CN(CCc1ccccc1)C(=O)Cn1c(C(=O)O)cc2cc(OCc3ccccc3)ccc21` showed an IC50 [1] of 11.2 nM and an IC50 [2] of 2.5 nM.
For `CN(CCc1ccccc1)C(=O)Cc1cc(CCCCC(=O)O)cc2c(OCc3ccccc3)cccc12`, the IC50 [1] was 100 nM and the IC50 [2] was 2.8 nM.
`Cc1c(C(=O)O)c2cc(OCc3ccccc3)ccc2n1CC(=O)N(C)CCc1ccccc1` showed an IC50 [1] of 90 nM and an IC50 [2] of 5 nM.
Molecule `CC/C(=C\c1cc(CC(=O)N(C)CCc2ccccc2)c2cccc(OCc3ccccc3)c2c1)C(=O)O` has an IC50 [1] of 50 nM and an IC50 [2] of 0.8 nM.
Molecule `CN(CCc1ccccc1)C(=O)Cc1cc(/C=C/C(=O)O)cc2c(Oc3ccccc3)cccc12` has an IC50 [1] of 20 nM and an IC50 [2] of 2 nM.
`CN(CCc1ccccc1)C(=O)Cc1cc(/C=C/C(=O)O)cc2c(-c3ccccc3)cccc12` showed an IC50 [1] of 50 nM and an IC50 [2] of 1 nM.
Work on `CN(O)C(=O)c1cc(CC(=O)N(C)CCc2ccccc2)c2cccc(OCc3ccccc3)c2c1` yielded an IC50 [3] of 60 nM.
Molecule `CN(CCc1ccccc1)C(=O)Cc1cc(/C=C/C(=O)O)cc2c(OCc3ccccc3)cccc12` has an IC50 [1] of 3.55 nM and an IC50 [2] of 0.58 nM.
With `CN(CCc1ccccc1)C(=O)Cc1cc(C(=O)O)cc2c(-c3ccccc3)cccc12` the IC50 [1] was 8.25 nM and the IC50 [2] was 0.45 nM.
In the case of `CN(CCc1ccccc1)C(=O)Cn1cc(CCC(=O)O)c2cc(OCc3ccccc3)ccc21`, the IC50 [2] is reported as 40 nM.
Molecule `CN(CCc1ccccc1)C(=O)Cn1cc(C(C(=O)O)c2ccccc2)c2c(OCc3ccccc3)cccc21` (stereo not drawn) has an IC50 [1] of 19 nM and an IC50 [2] of 2.5 nM.
With `CCCCCOc1cccc2c(CC(=O)N(C)CCc3ccccc3)cc(C(=O)O)cc12` the IC50 [1] was 9 nM and the IC50 [2] was 0.6 nM.
In the case of `CC/C(=C\c1cn(CC(=O)N(C)CCc2ccccc2)c2cccc(OCc3ccccc3)c12)C(=O)O`, the IC50 [1] is reported as 35 nM and the IC50 [2] is reported as 1.5 nM.
With `C/C(=C\c1cn(CC(=O)N(C)CCc2ccccc2)c2cccc(OCc3ccccc3)c12)C(=O)O` the IC50 [1] was 24.5 nM and the IC50 [2] was 2.33 nM.
In the case of `CN(CCc1ccccc1)C(=O)Cn1cc(/C=C/C(=O)O)c2cccc(OCc3ccccc3)c21`, the IC50 [4] is reported as “Not Active” and the IC50 [2] is reported as > 300 nM.
With `CN(CCc1ccccc1)C(=O)Cc1cc(CCC(=O)O)cc2c(Oc3ccccc3)cccc12` the IC50 [1] was 250 nM and the IC50 [2] was 20 nM.
`CN(CCc1ccccc1)C(=O)Cn1cc(C(=O)O)c2cc(OCc3ccccc3)ccc21` gave an IC50 [1] of 26.3 nM and an IC50 [2] of 1.5 nM.
For `CN(CCc1ccccc1)C(=O)Cc1cc(/C=C/C2N=NN=N2)cc2c(OCc3ccccc3)cccc12`, the IC50 [1] was 5 nM and the IC50 [2] was 3 nM.
With `COc1cccc2c(CC(=O)N(C)CCc3ccccc3)cc(C(=O)O)cc12` the IC50 [1] was 700 nM and the IC50 [2] was > 30 nM.
Work on `CN(CCc1ccccc1)C(=O)Cc1cc(/C=C/C=C/C(=O)O)cc2c(OCc3ccccc3)cccc12` yielded an IC50 [1] of 8 nM and an IC50 [2] of 1 nM.
In the case of `CN(CCc1ccccc1)C(=O)Cn1cc(C=O)c2cc(OCc3ccccc3)ccc21`, the IC50 [3] is reported as > 300 nM.
Work on `CN(CCc1ccccc1)C(=O)Cn1cc(C(=O)c2cccc(C(=O)O)c2)c2cc(OCc3ccccc3)ccc21` yielded an IC50 [1] of 8.5 nM and an IC50 [2] of 12 nM.
With `CN(CCc1ccccc1)C(=O)Cn1cc(/C=C/C(=O)O)c2c(OCc3ccccc3)cccc21` the IC50 [1] was 16.5 nM and the IC50 [2] was 1 nM.
`CN(CCc1ccccc1)C(=O)Cn1cc(/C=C/C=C/C(=O)O)c2c(OCc3ccccc3)cccc21` gave an IC50 [1] of 15 nM and an IC50 [2] of 1.5 nM.
Molecule `CN(CCc1ccccc1)C(=O)Cn1cc(C(=O)O)c2c(OCc3ccccc3)cccc21` has an IC50 [1] of 20.3 nM and an IC50 [2] of 1.45 nM.
`CN(CCc1ccccc1)C(=O)Cc1cc(C(=O)O)cc2c(Oc3ccccc3)cccc12` gave an IC50 [1] of 25 nM and an IC50 [2] of 1.5 nM.
